The values that follow are results of earlier work, collected in US20220047856A1, “HYDROGEL FOR IN-VIVO DIRECTIONAL RELEASE OF MEDICATION” (UMC Utrecht Holding B.V., priority 2018, published 2022).

Structures are written as SMILES.

For this data set the following is noted: local anaesthetic, conventional bupivacaine.

In the case of `CCCCN1CCCCC1C(=O)Nc1c(C)cccc1C` (stereo not shown) [Bupi, Bupivacaine], the “duration of its effect” value is “approx. 8 hours”.
